From US20160038532A1, “Treatment of Multiple Sclerosis With Combination of Laquinimod and Glatiramer Acetate” (TEVA PHARMACEUTICAL INDUSTRIES, LTD., priority 2011, published 2016)
Values joined by “and” are separate entries in the source; they are usually repeats but may differ in a detail not shown here. Equal values may be shown once. Read-outs that look alike come from different tables or passages of the source. Marks after values point to notes of the source that are not given here.

What was measured:
MSCH-induced EAE = MSCH-induced EAE in CSJL mice (Example 2.7); format: in vivo, CSJL/F1 mice
MOG-induced EAE = assay: MOG-induced EAE, repeat study (Example 2.3); format: in vivo, C57B1/6 mice; conditions: alone or + GA-blocking 12.5 mg/kg day 0
Procedure: 120 female C57B1/6 mice 8-10 weeks old were used the study. Mice were allocated randomly into 8 groups according to Table 7 below.
24 mg MOG was diluted in 8 ml PBS (3 mg/ml, stock solution). Groups 1, 3, 5 and 7: 4 ml of stock solution was diluted 1:1 with PBS. […] This solution was mixed 1:1 with the stock solution of MOG.
The high dose LAQ (25 mg/10 ml/kg) solution (150 mg in 60 ml DDW) was prepared once weekly and stored in the amber glass at room temperature. The lower LAQ doses were prepared daily. For the dose of 5 mg/kg, 1.6 ml of stock solution were added to 6.4 ml DDW. For the dose 1 mg/kg, […] of the previous solution (intermediate dose) were added to 5.2 ml DDW. The compound was administered by gavage once daily during the hole experiment (30 days) at a volume of 0.2 ml/mouse.
The mice were observed daily from the 10th day post-EAE induction (first injection of MOG) and the EAE clinical signs were scored according to the grades described in the 2 above.

[1] = tested on: relapsing remitting (RR) EAE; assay: Relapsing remitting EAE in Biozzi mice, combination study (Example 2.6); format: in vivo; parameters: MMS value / IMS value: scale not given here; conditions: for inhibition at 5 mg/kg / inhibition at 12.5 mg/kg / inhibition at 25 mg/kg: Mus musculus, 1416 h
Procedure: EAE is an animal model for multiple sclerosis. In the Biozzi AB/H EAE mice, a RR EAE can be induced. […] Re-injection of an encephalitogen can induce a chronic relapsing disease that enables measuring long-term effects on subsequent relapses rather than immediate effects.
The EAE induction was performed according to procedure “RR-EAE.Biozzi” The Biozzi mice were weighed and injected subcutaneously and re-injected one week later with encephalitogenic agent (MSCH emulsion). 0.3 mL of the encephalitogenic agent containing 1.0 mg of MSCH and 200.0 μg of MT was injected subcutaneously, at two sites in the right flank of each mouse (0.15 mL at each site). The second injection was done in a similar manner in the left flank, one week later.
On the day of first injection of encephalotigen, the Biozzi mice were randomly allocated to eight treatment groups as follows: Tables 16-17.
The 5.0 mg/mL laquinimod stock solution was diluted 1:5 to yield 1 mg/mL.
The mice in all the groups were administered daily by oral gavage a volume dose level of […] of the respective test formulations from the day the mice are allocated to the treatment groups (first injection of encephalitogen) for 59 consecutive days until the termination of the study.
The mice were examined and scored according to the following table, until the termination of the study (60 days after initiation of treatment).
The activity of the test articles for the first and second phase of RR EAE was calculated by comparing the incidence of disease, mortality, onset and duration of disease, group mean score and mean maximal score to the control group. Calculations were carried separately and together for the first and the second relapse.

[2] = LAQ 0.01 mg/kg/day oral, alone or + GA Blocking 0.5 mg/kg
[3] = LAQ 0.1 mg/kg/day oral, alone or + GA Blocking 0.5 mg/kg
[4] = first and second attacks together, laquinimod 5.0 mg/kg oral daily 59 d, alone or + GA 12.5 mg/kg oral
[5] = first and second attacks together, laquinimod 12.5 mg/kg oral daily 59 d
[6] = first and second attacks together, laquinimod 25.0 mg/kg oral daily 59 d, alone or + GA 12.5 mg/kg oral
[7] = first attack, LAQ 5.0 mg/kg oral daily, alone or + GA 12.5 mg/kg oral
[8] = first attack, LAQ 12.5 mg/kg oral daily
[9] = first attack, LAQ 25.0 mg/kg oral daily, alone or + GA 12.5 mg/kg oral
[10] = second attack, LAQ 5.0 mg/kg oral daily, alone or + GA 12.5 mg/kg oral
[11] = second attack, LAQ 12.5 mg/kg oral daily
[12] = second attack, LAQ 25.0 mg/kg oral daily, alone or + GA 12.5 mg/kg oral

Which results are given for `CCN(C(=O)c1c(O)c2c(Cl)cccc2n(C)c1=O)c1ccccc1` [laquinimod]?
% Inhibition 1 (incidence) (MSCH-induced EAE; [2]): 0.0%; GMS % Inhibition 3 (MSCH-induced EAE; [2]): 16.7%; GMS value (MSCH-induced EAE; [2]): 3.5 ± 0.9; Incidence (MSCH-induced EAE; [2]): 10/10; MMS % Inhibition 2 (MSCH-induced EAE; [2]): 4.0%; MMS value (MSCH-induced EAE; [2]): 4.8 ± 0.4; Mean Duration (MSCH-induced EAE; [2]): 11.5 ± 0.8 days; Mean Onset (MSCH-induced EAE; [2]): 12.5 ± 0.8 days; % Inhibition 1 (incidence) (MSCH-induced EAE; [3]): 10.0%; GMS % Inhibition 3 (MSCH-induced EAE; [3]): 31.0%; GMS value (MSCH-induced EAE; [3]): 2.9 ± 1.5; Incidence (MSCH-induced EAE; [3]): 9/10; MMS % Inhibition 2 (MSCH-induced EAE; [3]): 18.0%; MMS value (MSCH-induced EAE; [3]): 4.2 ± 1.7; Mean Duration (MSCH-induced EAE; [3]): 9.8 ± 4.0 days; Mean Onset (MSCH-induced EAE; [3]): 14.2 ± 4.0 days; % Inhibition 1 (incidence) (MSCH-induced EAE; LAQ 0.3 mg/kg/day oral): 0.0%; GMS % Inhibition 3 (MSCH-induced EAE; LAQ 0.3 mg/kg/day oral): 28.6%; GMS value (MSCH-induced EAE; LAQ 0.3 mg/kg/day oral): 3.0 ± 1.2; Incidence (MSCH-induced EAE; LAQ 0.3 mg/kg/day oral): 10/10; MMS % Inhibition 2 (MSCH-induced EAE; LAQ 0.3 mg/kg/day oral): 16.0%; MMS value (MSCH-induced EAE; LAQ 0.3 mg/kg/day oral): 4.2 ± 1.0; Mean Duration (MSCH-induced EAE; LAQ 0.3 mg/kg/day oral): 10.8 ± 2.0 days; Mean Onset (MSCH-induced EAE; LAQ 0.3 mg/kg/day oral): 13.2 ± 2.0 days; Mortality (MSCH-induced EAE; LAQ 0.3 mg/kg/day oral): 6/10; % Inhibition 1 (incidence) (MSCH-induced EAE; LAQ 1.0 mg/kg/day oral): 0.0%; GMS % Inhibition 3 (MSCH-induced EAE; LAQ 1.0 mg/kg/day oral): 38.1%; GMS value (MSCH-induced EAE; LAQ 1.0 mg/kg/day oral): 2.6 ± 1.1; Incidence (MSCH-induced EAE; LAQ 1.0 mg/kg/day oral): 10/10; MMS % Inhibition 2 (MSCH-induced EAE; LAQ 1.0 mg/kg/day oral): 28.0%; MMS value (MSCH-induced EAE; LAQ 1.0 mg/kg/day oral): 3.6 ± 0.0; Mean Duration (MSCH-induced EAE; LAQ 1.0 mg/kg/day oral): 10.7 ± 1.9 days; Mean Onset (MSCH-induced EAE; LAQ 1.0 mg/kg/day oral): 13.0 ± 2.0 days; Mortality (MSCH-induced EAE; LAQ 1.0 mg/kg/day oral): 3/10; Mortality (MSCH-induced EAE; mouse, in vivo): 7/10 and 8/10; inhibition at 1 mg/kg (MOG-induced EAE; Mus musculus, po, 0 h, laquinimod 1 mg/kg/day gavage, read-out: % inhibition compared to Control (GMS)): -1.2%; inhibition at 5 mg/kg (MOG-induced EAE; Mus musculus, po, 0 h, laquinimod 5 mg/kg/day gavage, read-out: % inhibition compared to Control (GMS)): 70%; inhibition at 25 mg/kg (MOG-induced EAE; Mus musculus, po, 0 h, laquinimod 25 mg/kg/day gavage, read-out: % inhibition compared to Control (GMS)): 95%; Group Mean Score (MOG-induced EAE; laquinimod 1 mg/kg/day gavage): 2.50; Incidence (MOG-induced EAE; laquinimod 1 mg/kg/day gavage): 15/15; Mean Disease Duration (MOG-induced EAE; laquinimod 1 mg/kg/day gavage): 14.1 days; Mean Maximal Score (MOG-induced EAE; laquinimod 1 mg/kg/day gavage): 4.27; Mean Onset (MOG-induced EAE; laquinimod 1 mg/kg/day gavage): 13.7 days; Mortality (MOG-induced EAE; laquinimod 1 mg/kg/day gavage): 4/15; Group Mean Score (MOG-induced EAE; laquinimod 5 mg/kg/day gavage): 0.74**; Incidence (MOG-induced EAE; laquinimod 5 mg/kg/day gavage): 11/15; Mean Disease Duration (MOG-induced EAE; laquinimod 5 mg/kg/day gavage): 6.3*** days; Mean Maximal Score (MOG-induced EAE; laquinimod 5 mg/kg/day gavage): 2.23*; Mean Onset (MOG-induced EAE; laquinimod 5 mg/kg/day gavage): 21.0*** days; Mortality (MOG-induced EAE; laquinimod 5 mg/kg/day gavage): 0/15; % inhibition compared to Control (GMS) (MOG-induced EAE; laquinimod 25 mg/kg/day gavage): 95.1%; Group Mean Score (MOG-induced EAE; laquinimod 25 mg/kg/day gavage): 0.12***; Incidence (MOG-induced EAE; laquinimod 25 mg/kg/day gavage): 6/15; Mean Disease Duration (MOG-induced EAE; laquinimod 25 mg/kg/day gavage): 1.5*** days; Mean Maximal Score (MOG-induced EAE; laquinimod 25 mg/kg/day gavage): 0.77***; Mean Onset (MOG-induced EAE; laquinimod 25 mg/kg/day gavage): 24.7*** days; Mortality (MOG-induced EAE; laquinimod 25 mg/kg/day gavage): 0/15; inhibition at 5 mg/kg ([1]; first and second attacks together, laquinimod 5.0 mg/kg oral daily 59 d, alone or + GA 12.5 mg/kg oral, read-out: GMS % inhibition): 21.7%; inhibition at 5 mg/kg ([1]; first and second attacks together, laquinimod 5.0 mg/kg oral daily 59 d, alone or + GA 12.5 mg/kg oral, read-out: Incidence % inhibition): 23.1%; inhibition at 5 mg/kg ([1]; first and second attacks together, laquinimod 5.0 mg/kg oral daily 59 d, alone or + GA 12.5 mg/kg oral, read-out: MMS % inhibition): 16.2%; inhibition at 12.5 mg/kg ([1]; first and second attacks together, laquinimod 12.5 mg/kg oral daily 59 d, read-out: GMS % inhibition): 43.5%; inhibition at 12.5 mg/kg ([1]; first and second attacks together, laquinimod 12.5 mg/kg oral daily 59 d, read-out: Incidence % inhibition): 23.1%; inhibition at 12.5 mg/kg ([1]; first and second attacks together, laquinimod 12.5 mg/kg oral daily 59 d, read-out: MMS % inhibition): 22.2%; inhibition at 25 mg/kg ([1]; first and second attacks together, laquinimod 25.0 mg/kg oral daily 59 d, alone or + GA 12.5 mg/kg oral, read-out: GMS % inhibition): 30.4%; inhibition at 25 mg/kg ([1]; first and second attacks together, laquinimod 25.0 mg/kg oral daily 59 d, alone or + GA 12.5 mg/kg oral, read-out: Incidence % inhibition): 30.8%; inhibition at 25 mg/kg ([1]; first and second attacks together, laquinimod 25.0 mg/kg oral daily 59 d, alone or + GA 12.5 mg/kg oral, read-out: MMS % inhibition): 27.8%; GMS value [1, 4]: 1.8; Incidence [1, 4]: 10/14; MMS value [1, 4]: 3.1; Mean Duration [1, 4]: 26.5 ± 17.0 days; Mortality [1, 4]: 0/14; GMS value [1, 5]: 1.3; Incidence [1, 5]: 10/14; MMS value [1, 5]: 2.8; Mean Duration [1, 5]: 17.5 ± 14.0 days; Mortality [1, 5]: 0/14; GMS value [1, 6]: 1.6; Incidence [1, 6]: 9/14; MMS value [1, 6]: 2.6; Mean Duration [1, 6]: 23.0 ± 16.4 days; Mortality [1, 6]: 0/14; IMS value [1, 7]: 42.9 ± 29.8; Incidence [1, 7]: 10/14; MMS % Inhibition 2 [1, 7]: 19.4%; MMS value [1, 7]: 2.9 ± 1.9; Mean Duration [1, 7]: 15.4 ± 10.9 days; Mortality [1, 7]: 0/14; IMS % Inhibition 3 ([1]; first attack, LAQ 5.0 mg/kg oral daily, alone or + GA 12.5 mg/kg oral, listed as LAQ): 15.6%; IMS % Inhibition 3 [1, 8]: 53.3%; IMS value [1, 8]: 32.4 ± 24.9; Incidence [1, 8]: 10/14; MMS % Inhibition 2 [1, 8]: 25.0%; MMS value [1, 8]: 2.7 ± 1.9; Mean Duration [1, 8]: 9.6 ± 8.6 days; Mortality [1, 8]: 0/14; IMS % Inhibition 3 [1, 9]: 42.8%; IMS value [1, 9]: 39.7 ± 32.3; Incidence [1, 9]: 9/14; MMS value [1, 9]: 2.6 ± 2.0; Mean Duration [1, 9]: 13.9 ± 10.0 days; Mortality [1, 9]: 0/14; % Inhibition 1 (incidence) [1, 10]: 1.8%; IMS % Inhibition 3 [1, 10]: 18.4%; IMS value [1, 10]: 38.6 ± 28.5; Incidence [1, 10]: 10/14; MMS % Inhibition 2 [1, 10]: 3.4%; MMS value [1, 10]: 2.8 ± 1.8; Mean Duration [1, 10]: 11.4 ± 11.5 days; Mortality [1, 10]: 0/14; % Inhibition 1 (incidence) [1, 11]: 11.6%; IMS % Inhibition 3 [1, 11]: 41.4%; IMS value [1, 11]: 27.7 ± 23.1; Incidence [1, 11]: 9/14; MMS % Inhibition 2 [1, 11]: 13.8%; MMS value [1, 11]: 2.5 ± 2.0; Mean Duration [1, 11]: 7.9 ± 6.5 days; Mortality [1, 11]: 0/14; % Inhibition 1 (incidence) [1, 12]: 21.5%; IMS % Inhibition 3 [1, 12]: 29.2%; IMS value [1, 12]: 33.5 ± 32.2; Incidence [1, 12]: 8/14; MMS % Inhibition 2 [1, 12]: 20.7%; MMS value [1, 12]: 2.3 ± 2.1; Mean Duration [1, 12]: 9.1 ± 8.6 days; Mortality [1, 12]: 0/14
